According to the NIST ThermoML archive (doi:10.1021/je900530f):
Numbers after ± are expanded uncertainties.

Details: Liquid

Row | SMILES | vapor or sublimation pressure (313.15 K) [kPa] | vapor or sublimation pressure (323.15 K) [kPa] | vapor or sublimation pressure (333.15 K) [kPa] | vapor or sublimation pressure (338.15 K) [kPa]
1 | CCC(C)(C)O [2-methylbutan-2-ol] | 5.69 ± 0.24 | 10.41 ± 0.32 | 17.87 ± 0.43 | 22.87 ± 0.51
2 | CCC(C)O (stereo not given) [butan-2-ol] | 5.83 ± 0.18 | 10.48 ± 0.24 | 18.2 ± 0.33 | –
3 | CCCCCC [hexane] | 37.04 ± 0.55 | 53.91 ± 0.74 | 76.32 ± 1 | 89.92 ± 1.2
4 | CCCC(C)O (stereo not given) [pentan-2-ol] | 2.13 ± 0.14 | 4.16 ± 0.16 | 7.57 ± 0.2 | 9.99 ± 0.23
